“And” between values parts separate entries of the source, which are not always exact repeats. Identical values can stand only once. Like-named read-outs stand apart in the source and are kept apart here.

Data set [1] in a line: Human liver microsomes half life. The format is in vitro ADME. To be noted: pH 7.4, read-out: Human liver microsomes t ½. The protocol: Example Compound 1 was tested for metabolic stability in an assay using human liver microsomes. Comparative Examples 2, 3, 4, 5 and 6 were also tested in the same assay. Compounds having good metabolic stability in the assay are expected to be especially useful as agents for preventing and/or treating cancer, by having a long half-life in human patients
Frozen human liver microsomes obtained from Corning, USA (cat #452117) were thawed and diluted with 100 mM of pH 7.4 phosphate buffer to give a 1 mg/ml solution. An NADPH regeneration system (NRS) was prepared as a solution containing 13 mM NADP, 33 mM glucose-6-phosphate, 33 mM MgCl2 and 4U/mL glucose-6-phosphate dehydrogenase in 100 mM of pH7.4 phosphate buffer. The test compound (4 mM) in DMSO was diluted with acetonitrile to provide a 100 μM sub-stock then further diluted with 100 mM of pH7.4 phosphate buffer to provide a 2 μM working solution. The liver microsome solution and NRS were incubated at 37° C. before use. To each well of the test plate was dispensed 60 μL of buffer, 50 μL of test compound solution and 10 μL of NRS. A reaction was initiated by addition of 40 μL of liver microsome solution. Wells were incubated for an appropriate time (0, 5, 10, 20, 30 and 60 min) then quenched with 300 μL of acetonitrile containing reference standards atenolol, propranolol, diclofenac, verapamil). All plates were centrifuged at 3500 rpm for 20 min at 15° C. to pellet the debris. 110 μL supernatant was diluted 110 μL water and quantitated using LC-MS/MS.
The results were used to calculate the % Remaining of the test compound at time point t=100×˜[(AUC at time point t)/(AUC at T=0)]. A linear regression curve was fitted to a plot of natural logarithm (In) of AUC against time. The T-half (min)=0.693/slope.

Data set [2] deals with MRC5 cells. In words: Metabolic activity assay (MTS assay), MRC5. The data set is classed as cell-based, human. The procedure:
Example NMT inhibitors of the present invention were tested for activity in an in vitro metabolic activity assay using the human cell line MRC5. Comparative Examples 1, 2, 3, 4, 5 and 6 were also tested in the same metabolic activity assay. Compounds having activity in inhibiting metabolic activity in the assay are expected to be useful as agents for preventing and/or treating cancer, by virtue of being inhibitors of human NMT1 and/or NMT2.
MRC5 cells (obtained from Dr David Mann's group, Imperial College; cell type: fibroblasts cells which derive from normal lung tissue) were grown in DMEM media (supplemented with 10% FBS) and were seeded in a 96-well plate, 24 h prior to treatment. Cell suspensions were prepared by adjusting the cell density to the appropriate concentration (as stated in the Table 1 below) and 50 μL of the cell suspension was transferred to wells B-G in columns 2-11 of a 96-well plate.
100 μL of growth media (DMEM media) containing 0.2% DMSO was added to wells B-G in columns 2 and 11 as positive controls, and 100 μl of growth media containing Puromycin (3 μg/mL; final concentration in the plate 2 μg/mL) was added to wells B-G in column 3 as a negative control. Seven concentrations of NMT inhibitor stock solution were prepared for each Example (Example 1 and 2) and each Comparative Example (Comparative Examples 1, 2, 3, 4, 5 and 6) tested (same final percentage of DMSO, dilution factor=3 starting from 15 μM or 150 μM). 100 μL of inhibitor stock solution was added to wells B-G in columns 4-10 of a 96-well plate (final concentration of Example compound or Comparative Example compound in the plate starting from 10 μM or 100 μM; total volume in each well was 150 μL). The plate was incubated at 37° C. with 5% CO2 level.
After 72 h, 20 μL MTS reagent (Promega, prepared according to the supplier protocol) was added to each well of the 96-well plate. The plate was incubated at 37° C. for 2 h and the absorbance per well was measured at 490 nm with an EnVision plate reader. The average absorbance value of the negative control (Puromycin-treated cells) was subtracted from each value and the metabolic activity was calculated as a percentage relative to the positive control (DMSO-treated cells). EC50 values were calculated using GraphPad.

A short description of data set [3]: Rat hepatocyte half life. The format is in vitro ADME, Sprague-Dawley rats. To be noted: pooled cryopreserved rat hepatocytes, pH 7.4; pooled male Sprague-Dawley rat hepatocytes; read-out: Rat Hepatocyte t ½. The protocol: Example Compound 1 was tested for metabolic stability in rat metabolic assays using hepatocytes derived from pooled male Sprague-Dawley rats. Comparative Examples 2, 3 and 4 were also tested in the same assay. Compounds having good metabolic stability in the assay are expected to be especially useful as agents for preventing and/or treating cancer, by having a long half-life in human patients.
Frozen pooled rat hepatocytes obtained from LifeTechnologies were thawed and purified according to the manufacturer's instructions. The test compound (4 mM) in DMSO was diluted with acetonitrile to provide a 100 μM sub-stock then further diluted with pH7.4 Krebs-Henseleit buffer supplemented with CaCl2), NaHCO3, HEPES, fructose and glycine) to provide a 2 μM working solution. 25 μL of working solution was incubated at 37° C., treated with 25 μL of rat hepatocyte suspension (containing 1×10^6 cells/mL) and incubated at 37° C. with 5% CO2 level at 95% relative humidity. Wells were incubated for an appropriate time (0, 15, 30, 45, 60 and 75 min) then quenched with 250 μL of acetonitrile containing reference standards diltiazem, 7-ethoxycoumarin and propranolol). The plates were shaken, sonicated for 5 min then cooled to 4° C. until all sampling was complete. All plates were centrifuged at 4000 rpm for 20 min to pellet the debris. 110 μl supernatant was diluted 110 μL water and quantitated using LC-MS/MS.
The results were used to calculate the % Remaining of the test compound at time point t=100×˜[(AUC at time point t)/(AUC at T=0)]. A linear regression curve was fitted to a plot of natural logarithm (In) of AUC against time. The T-half (min)=0.693/slope

For data set [4], the target named is T1, human NMT1 (HsNMT1) (Homo sapiens, UniProt P30419).
T1 sequence (P30419 1-496): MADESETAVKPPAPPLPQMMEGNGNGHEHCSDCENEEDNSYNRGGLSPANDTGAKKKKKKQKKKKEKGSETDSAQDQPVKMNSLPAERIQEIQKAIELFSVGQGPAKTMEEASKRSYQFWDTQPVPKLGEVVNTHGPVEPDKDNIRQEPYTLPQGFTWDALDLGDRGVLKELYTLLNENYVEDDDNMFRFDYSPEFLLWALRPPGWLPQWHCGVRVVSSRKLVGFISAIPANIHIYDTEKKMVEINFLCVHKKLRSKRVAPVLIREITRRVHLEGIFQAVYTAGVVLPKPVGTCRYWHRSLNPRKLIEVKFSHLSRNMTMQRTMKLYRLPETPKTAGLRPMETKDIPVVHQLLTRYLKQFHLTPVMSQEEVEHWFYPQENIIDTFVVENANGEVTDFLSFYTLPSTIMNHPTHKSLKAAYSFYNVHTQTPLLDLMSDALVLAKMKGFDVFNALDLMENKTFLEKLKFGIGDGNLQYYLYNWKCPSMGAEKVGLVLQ
Put plainly: HsNMT1 IC50, fluorescence-based assay detecting CoA with CPM. The data set is classed as biochemical. The procedure:
The IC50 values for human NMT1 (HsNMT1) of four Example compounds of the invention described above (Examples 1-4) and six comparative examples (Comparative Examples 1, 2, 3, 4, 5 and 6) were measured using a sensitive fluorescence-based assay based on detection of CoA by 7-diethylamino-3-(4-maleimido-phenyl)-4-methylcoumarin, as described in Goncalves, V., et al., Analytical Biochemistry, 2012, 421, 342-344 and Goncalves, V., et al., J. Med. Chem, 2012, 55, 3578.

For data set [5], the system named is MDA MB 231 cells. In words: CellTiter-Blue assay, MDA MB 231. The format is cell-based, human. The procedure: (§1) Example NMT inhibitors of the present invention were tested for activity in in vitro CellTiter-Blue® assays using the human cell line MDA MB 231, LY 12318, or BL-41. Comparative Examples 1 and 2 were also tested in the same assays. Compounds having activity in inhibiting metabolic activity in the assay are expected to be useful as agents for preventing and/or treating cancer, by virtue of being inhibitors of human NMT1 and/or NMT2.
(§2) MDA MB 231 cells (obtained from Professor Eric Aboagye, Hammersmith Hospital; cell type: triple negative breast cancer) were grown in low glucose DMEM in 5% CO2 media (supplemented with 10% FBS); LY 12318 cells (obtained from Dr Martin Janz, Max Delbrueck Center; cell type: B cell lymphoma patient derived xenograft) were grown in DMEM media (supplemented with 10% FBS); and BL-41 cells (obtained from Cell Services at the Crick Institute; cell type: Burkitt's Lymphoma) were grown in RPMI-1640 media in 5% CO2 (supplemented with 10% FBS). The MDA MB 231 cells, LY 12318 cells or BL-41 cells were seeded in 96-well plates, 24 h prior to treatment. Cell suspensions were prepared by adjusting the cell density to the appropriate concentration (as stated in the Table 2 below) and 50 μL of the cell suspension was transferred to wells B-G in columns 2-11 of a 96-well plate.
(§3) Twenty-four hours later, 50 μl of growth media (low glucose DMEM in 5% CO2 media supplemented with 10% FBS for MDA MB 231 cells; DMEM media in 5% CO2 supplemented with 10% FBS for LY 12318 cells; or RPMI-1640 media supplemented with 10% FBS for BL-41 cells) containing 0.0004% DMSO (positive control), a mix of Puromycin and Staurosporine (negative controls, final concentration 2 μg/mL and 1 μM respectively) or different concentrations of each Example (Example 1 and 2) or each Comparative Example (Comparative Example 1 and 2) (dilution factor=3, starting at […], final concentration in the plate starting from 10 μM) were prepared and added to a well of the 96-well plate. The plate was incubated at 37° C. with 5% CO2 level.
(§4) 72 hours later, 20 μl/well CellTiter-Blue® (G8081, Promega) were added to the plates according to the manufacturer's protocol, the plate was incubated at 37° C. for 4 h for MDA MB 231 cells and BL-41 cells, or 3 h for LY 12318 cells, followed by measuring the absorbance per well at 570 nm using an EnVision plate reader. The negative control values were subtracted from every value. The metabolic activity was calculated as a percentage relative to the positive control. The EC50 values were calculated using GraphPad Prism.

In data set [6] the test system is LY 12318 cells. Put plainly: CellTiter-Blue assay, LY 12318. The format is cell-based, human. To be noted: 72 h, read-out: LY12318 EC50. The protocol:
as §1, §2, §3, §4

Data set [7] relates to BL-41 cells. Put plainly: CellTiter-Blue assay, BL-41. The data set is classed as cell-based, human. The protocol:
as §1, §2, §3, §4

For `Cc1c(CCOc2cc(F)ccc2-c2ccc3ncc(CN(C)C)n3c2)c(C(=O)N(C)C)nn1C` [Comparative Example 4, 4-[2-(2-{3-[(dimethylamino)methyl]imidazo[1,2-a]pyridin-6-yl}-5-fluorophenoxy)ethyl]-N,N,1,5-tetramethyl-1H-pyrazole-3-carboxamide], the half-life at 0.625 µM in data set [1] stood at 12 min. The compound also displayed an EC50 in data set [2] (Homo sapiens, MRC5, 72 h) of 63 nM. In addition, the half-life at 1 µM in data set [3] was 32 min. Also, the IC50 in data set [4] was ~1 nM and 1 nM.

As for `Cc1nn(C)c(C)c1CCOc1c(F)cccc1-c1ccc2c(c1)c(CN(C)C)nn2C` [Comparative Example 6, 1-(5-(3-fluoro-2-(2-(1,3,5-trimethyl-1H-pyrazol-4-yl)ethoxy)phenyl)-1-methyl-1H-indazol-3-yl)-N,N-dimethylmethanamine], in data set [1], the half-life at 0.625 µM came out at 4 min. The compound further had an EC50 in data set [2] (Homo sapiens, MRC5, 72 h) of 38 nM.

On to `CNC(=O)c1nn(C)c(C)c1CCOc1c(-c2ccc3ncc(CCN)n3c2)ccc(Cl)c1F` [Example Compound 4, 4-(2-{6-[3-(2-aminoethyl)imidazo[1,2-a]pyridin-6-yl]-3-chloro-2-fluorophenoxy}ethyl)-N,1,5-trimethyl-1H-pyrazole-3-carboxamide], for which the half-inhibitory concentration (IC50) in data set [4] was found to be 6.3 nM.

`Cc1c(CCOc2c(-c3ccc4ncc(CCN)n4c3)ccc(Cl)c2F)c(C(=O)N(C)C)nn1C` [Example Compound 3, 4-(2-{6-[3-(2-aminoethyl)imidazo[1,2-a]pyridin-6-yl]-3-chloro-2-fluorophenoxy}ethyl)-N,N,1,5-tetramethyl-1H-pyrazole-3-carboxamide] registered an IC50 in data set [4] of 4.2 nM.

Take `Cc1c(CCOc2cc(F)ccc2-c2ccc3ncc(CCN)n3c2)c(C(=O)N(C)C)nn1C` [Comparative Example 1, 4-(2-{2-[3-(2-aminoethyl)imidazo[1,2-a]pyridin-6-yl]-5-fluorophenoxy}ethyl)-N,N,1,5-tetramethyl-1H-pyrazole-3-carboxamide]: the EC50 in data set [5] (Homo sapiens, MDA-MB-231, 72 h) worked out at 285 nM; in data set [2] (Homo sapiens, MRC5, 72 h), 450 nM; in data set [6] (Homo sapiens), 246 nM; in data set [7] (Homo sapiens, BL-41, 72 h), 91 nM. The compound further came in with a concentration for half-maximal inhibition (IC50) in data set [4] of 2 nM.

Take `CNC(=O)c1nn(C)c(C)c1CCOc1cc(Cl)ccc1-c1ccc2ncc(CCN)n2c1` [Example Compound 2, 4-(2-{2-[3-(2-aminoethyl)imidazo[1,2-a]pyridin-6-yl]-5-chlorophenoxy}ethyl)-N,1,5-trimethyl-1H-pyrazole-3-carboxamide]: the EC50 in data set [5] (72 h) was 45 nM; in data set [5] (Homo sapiens, MDA-MB-231, 72 h), under 70 nM; in data set [2] (72 h) it was 37 nM; in data set [2] (Homo sapiens, MRC5, 72 h), under 40 nM; in data set [6], 69 nM; in data set [6] (Homo sapiens), under 70 nM. Moreover, in data set [7] (72 h), the EC50 was found to be 24 nM.
